Reference: patent US11401236B2, “Resorcinol derivatives for their cosmetic use” (L'OREAL, priority 2017, dated 2022)
Values joined by “and” are separate entries in the source; they are usually repeats but may differ in a detail not shown here. Equal entries are not always repeated. Where two headings read alike, the source gives them in different places.

How the values were obtained:
normal human melanocytes = assay: Depigmenting activity: reduction of melanin production in normal human melanocytes in vitro; type: cell-based; settings: Melanocyte
Experimental: The measurement of the depigmenting activity (reduction of melanin production) of compounds of formula (I) was performed by assaying normal human melanocytes in vitro as follows.
First of all, normal human melanocytes were cultured and dispensed into 384 wells. After 24 hours, the culture medium was replaced with a medium containing compounds of formula (I) to be evaluated. The cells were incubated for 72 hours before measurement of the final optical density, which measures the amount of melanin produced by the melanocytes. A dose effect was performed using a wide concentration range of the compounds evaluated. Thus, by making the concentrations and the measurements of melanin correspond, it is possible to determine an IC50 in μM: concentration at which 50% decrease in melanin synthesis is achieved.

[1] = test system: coculture of keratinocytes and melanocytes; assay: Modulatory effect on melanogenesis and cytotoxicity in a coculture of keratinocytes and melanocytes; type: cell-based; settings: for IC50: melanin optical density, read-out: IC50 (concentration for which 50% of the melanin synthesis is inhibited)
Experimental: The modulatory effect on melanogenesis of each compound was measured according to the method described in the patent FR-A-2734825, and also in the article by R. Schmidt, P. Krien and M. Régnier, Anal. Biochem., 235(2), 113-18, 1996. This test is carried out on a coculture of keratinocytes and melanocytes. For the compounds tested, the following were determined: • the cytotoxicity, • the inhibitory activity on melanin synthesis, by estimating the melanin optical density, • the IC50 values (concentration for which 50% of the melanin synthesis is inhibited).

[2] = Stability of the compound (statement in the synthesis example); type: physicochemical; settings: no conditions given
[3] = test system: pigmented reconstructed epidermis; assay: Experiment on pigmented reconstructed epidermis (melanin versus solvent); type: cell-based
Excerpt: Experiment on pigmented reconstructed epidermis

[4] = Homo sapiens, 72 h, Table 3 test campaign, normal human melanocytes, 72 hours incubation, 50% decrease in melanin synthesis, maximum concentration tested 200 μM, read-out: IC50
[5] = Homo sapiens, prior-art comparison compounds, compared with the Table 2 results, melanin synthesis in normal human melanocytes, read-out: IC50 value
[6] = Table 2 test campaign, normal human melanocytes, 72 hours incubation, concentration at which 50% decrease in melanin synthesis is achieved, maximum concentration tested 200 μM, read-out: IC50

SMILES | IC50 (normal human melanocytes; [4]) [nM] | IC50 (normal human melanocytes; [6]) [nM] | melting point | other results
CCOC(=O)C(C)NC(=O)CCC(C)c1ccc(O)cc1O (racemic) [Compound 17, ethyl N-[4-(2,4-dihydroxyphenyl)pentanoyl]-DL-alaninate] | 391 |  |  | cytotoxicity [1]: non-cytotoxic; IC50 [1]: 120 nM
CNC(=O)/C=C/c1ccc(O)cc1O [(A), reference compound] |  |  |  | IC50 (normal human melanocytes; [5]): 3860 nM
COC(=O)CC(C)c1ccc(O)cc1O (centres unmarked) [(B), reference compound] |  |  |  | IC50 (normal human melanocytes; [5]): 4970 nM
O=C(O)CCc1ccc(O)cc1O [(C), reference compound] |  |  |  | IC50 (normal human melanocytes; [5]): 63100 nM
CC(CCC(=O)O)c1ccc(O)cc1O (centres unmarked) [Compound 1, 4-(2,4-dihydroxyphenyl)pentanoic Acid] |  | 4800 |  | stability of the compound [2]: stable
CCNC(=O)CCC(C)c1ccc(O)cc1O (centres unmarked) [Compound 2, 4-(2,4-dihydroxyphenyl)-N-ethylpentanamide] |  | 824 |  | depigmenting efficiency ([3]; comparison with lucinol): greater than lucinol; Comparison of melanin with respect to the solvent (DMSO) ([3]; effective concentration 50 μM): −26%
CC(C)NC(=O)CCC(C)c1ccc(O)cc1O (centres unmarked) [Compound 3, 4-(2,4-dihydroxyphenyl)-N-(propan-2-yl)pentanamide] |  | 617 | 60 to 65 °C and 56 °C | 
CCCCNC(=O)CCC(C)c1ccc(O)cc1O (centres unmarked) [Compound 4, N-butyl-4-(2,4-dihydroxyphenyl)pentanamide] |  | 692 |  | 
CCC(C)NC(=O)CCC(C)c1ccc(O)cc1O (centres unmarked) [Compound 5, N-(butan-2-yl)-4-(2,4-dihydroxyphenyl)pentanamide] | 391 | 447 |  | 
CC(CCC(=O)NC1CCCCC1)c1ccc(O)cc1O (centres unmarked) [Compound 6, N-cyclohexyl-4-(2,4-dihydroxyphenyl)pentanamide] | 391 | 557 | 75 to 78 °C | cytotoxicity [1]: non-cytotoxic; IC50 [1]: 140 nM
CC(CCC(=O)NCC1CCCCC1)c1ccc(O)cc1O (centres unmarked) [Compound 7, N-(cyclohexylmethyl)-4-(2,4-dihydroxyphenyl)pentanamide] |  | 401 |  | 
CC(CCC(=O)NCCc1ccc(O)cc1)c1ccc(O)cc1O (centres unmarked) [Compound 8, 4-(2,4-dihydroxyphenyl)-N-[2-(4-hydroxyphenyl)ethyl]pentanamide] |  | 391 |  | 
CC(CCC(=O)NCCO)c1ccc(O)cc1O (centres unmarked) [Compound 9, 4-(2,4-dihydroxyphenyl)-N-(2-hydroxyethyl)pentanamide] |  | 636 |  | 
CC(CCC(N)=O)c1ccc(O)cc1O (centres unmarked) [Compound 10, 4-(2,4-dihydroxyphenyl)pentanamide] |  | 1070 | 54 to 56 °C | 
CCNC(=O)CCC(C)c1ccc(OC(C)=O)cc1OC(C)=O (centres unmarked) [Compound 11, 4-[5-(ethylamino)-5-oxopentan-2-yl]benzene-1,3-diyl diacetate] |  | 940 |  | 
CC(CCC(=O)NCC(=O)O)c1ccc(O)cc1O (centres unmarked) [Compound 14, N-[4-(2,4-dihydroxyphenyl)pentanoyl]glycine] | 18500 |  | 59 to 65 °C | 
CCOC(=O)[C@H](C)NC(=O)CCC(C)c1ccc(O)cc1O (stereo partly drawn) [Compound 15, ethyl N-[4-(2,4-dihydroxyphenyl)pentanoyl]-L-alaninate] |  | 1080 | 48 to 50 °C | 
CC(CCC(=O)N[C@H](C)C(=O)O)c1ccc(O)cc1O (stereo partly drawn) [Compound 18, N-[4-(2,4-dihydroxyphenyl)pentanoyl]-D-alanine] |  | 1630 | 65 to 68 °C | 
COC(=O)[C@H](CC(C)C)NC(=O)CCC(C)c1ccc(O)cc1O (some centres unmarked) [Compound 20, methyl N-[4-(2,4-dihydroxyphenyl)pentanoyl]leucinate] | 1200 | 1580 | 63 °C | 
CCOC(=O)[C@H](Cc1ccccc1)NC(=O)CCC(C)c1ccc(O)cc1O (some centres unmarked) [Compound 22, ethyl N-[4-(2,4-dihydroxyphenyl)pentanoyl]phenylalaninate] | 8330 |  | 51 to 59 °C | 
CCN(CC)C(=O)CCC(C)c1ccc(O)cc1O (centres unmarked) [Compound 24, 4-(2,4-dihydroxyphenyl)-N,N-diethylpentanamide] |  | 1020 |  | 
COCCN(CCOC)C(=O)CCC(C)c1ccc(O)cc1O (centres unmarked) [Compound 25, 4-(2,4-dihydroxyphenyl)-N,N-bis(2-methoxyethyl)pentanamide] | 5270 |  | 78 to 81 °C | 
CCN(CCO)C(=O)CCC(C)c1ccc(O)cc1O (centres unmarked) [Compound 26, 4-(2,4-dihydroxyphenyl)-N-ethyl-N-(2-hydroxyethyl)pentanamide] |  | 1960 |  | cytotoxicity [1]: non-cytotoxic; IC50 [1]: 450 nM
CCOC(=O)CN(C)C(=O)CCC(C)c1ccc(O)cc1O (centres unmarked) [Compound 27, ethyl N-[4-(2,4-dihydroxyphenyl)pentanoyl]-N-methylglycinate] | 51300 |  |  | 
CC(CCC(=O)N(C)CC(=O)O)c1ccc(O)cc1O (centres unmarked) [Compound 28, N-[4-(2,4-dihydroxyphenyl)pentanoyl]-N-methylglycine] | 31100 |  |  | 
CC(CCC(=O)N1CCOCC1)c1ccc(O)cc1O (centres unmarked) [Compound 29, 4-(2,4-dihydroxyphenyl)-1-(morpholin-4-yl)pentan-1-one] | 1820 | 2940 |  | 
CCOC(=O)CCC(C)c1ccc(O)cc1O (centres unmarked) [Compound 30, ethyl 4-(2,4-dihydroxyphenyl)pentanoate] |  | 1010 |  | 
CC(CCC(=O)OC[C@@H](O)[C@H](O)[C@@H](O)CO)c1ccc(O)cc1O (stereo partly drawn) [Compound 32, 5-O-[4-(2,4-dihydroxyphenyl)pentanoyl]-D-xylitol] |  | 3030 |  | 
CC(CCC(=O)OCCCNC(=O)C1OC(C)(C)OCC1(C)C)c1ccc(O)cc1O (centres unmarked) [Compound 34, 3-{[(2,2,5,5-tetramethyl-1,3-dioxan-4-yl)carbonyl]amino}propyl 4-(2,4-dihydroxyphenyl)pentanoate] |  | 2950 |  | 
CCCCc1ccc(O)cc1O [Lucinol, 4-n-butyl resorcinol, reference compound] |  |  |  | IC50 [1]: 790 nM; Comparison of melanin with respect to the solvent (DMSO) ([3]; effective concentration 500 μM): −25%
